Reference: patent US20250121013A1, “USE OF BACILLUS AMYLOLIQUEFACIENS FOR PREVENTING AND TREATING PARKINSON'S DISEASE” (Artugen Therapeutics Ltd., priority 2021, published 2025)

Assays:
[1] = test system: MPTP-induced model of PD; test: MPTP-induced mouse model of PD, striatal dopamine and DOPAC (Example 1); format: in vivo
Description: • Route(s) of administration: IP for MPTP (1-Methyl-4-phenyl-1,2,3,6-tetrahydropyridine hydrochloride) and vehicle, PO for ART24 and vehicle (trehalose) • Dose Volume(s): 10 mL/kg for MPTP, 0.1 mL for ART24 • Formulation(s): PBS for MPTP; saline-based formulation for ART24 • Dose Levels: 20 mg/kg for MPTP, for ART24 • Dose Frequency: 4 doses (QD) for MPTP; 11 days BID for ART24 • Study duration: 11 days • Number of Groups: 4 • Number of animals per group: 13 • Total number of animals: 52 (57 animals were enrolled in the study)
MPTP model. MPTP was formulated in phosphate buffered saline (PBS) and administered to mice QD for 4 days at a dose of 20 mg/kg (2 mg/mL delivered as 10 mL/kg).
Neurotransmitter measurements (DA and DOPAC). 10 mice from each were anesthetized and blood collected into K2EDTA tubes by a cardiac puncture. Brains were extracted and dissected. The rostral part was dissected and striata removed. The striata were frozen and subsequently evaluated for levels of dopamine and metabolites.
Striata were homogenized in 0.3M perchloric acid. The resulting supernatant was analyzed for levels of monoamines by reverse phase HPLC-ECD.
Data analysis. Data were analyzed using a two-way repeated measures ANOVA with a post hoc Fisher's LSD multiple comparison test. The raw data were also analyzed for outliers using ROUT method (Q=1%). GraphPad Prism 9 was used for data analysis and presentation.

[2] = test system: MPTP-induced model of PD; test: Locomotion activity in MPTP zebrafish model (Example 6); format: in vivo; details: larvae; MPTP 250 μM 96 to 120 hpf; ART24 4×10^6 CFU/mL in water of MPTP-exposed fish; 50 min alternating dark/light
Description: Zebrafish larvae were dosed with MPTP (250 μM; 96 to 120 hours post fertilization) or sham treated (DMSO only; n=22) in water. ART24 was dosed in water of MPTP-exposed fish (4×10^6 CFU/mL; n=16). Movement was evaluated with an imaging system during 50 min of testing consisting of 10-min periods of alternating darkness/bright light. Data was analyzed by one-way ANOVA followed by a Dunnet test comparing against MPTP treatment.

[3] = compared to saline/MPTP dosed animals, PO BID Day -3 to Day 7, MPTP 20 mg/kg IP QD 4 days, n=10/group
[4] = MPTP 20 mg/kg IP QD 4 days compared to saline/vehicle treated animals

Structure (SMILES) | DOPAC concentration in the striatum [1, 3] | dopamine concentration in the striatum [1, 3] | DOPAC content in the striatum [1, 4] | dopamine content in the striatum [1, 4] | total motor movement distance [2]
OC[C@H]1O[C@H](O[C@H]2O[C@H](CO)[C@@H](O)[C@H](O)[C@H]2O)[C@H](O)[C@@H](O)[C@@H]1O [trehalose] | did not produce a significant effect | did not produce a significant effect | – | – | –
CN1CC=C(c2ccccc2)CC1.Cl [MPTP, 1-Methyl-4-phenyl-1,2,3,6-tetrahydropyridine hydrochloride] | – | – | significant depletion | significant depletion | 24 % of sham
